Source: patent US7332495B2 (priority 2002, dated 2008)

How the values were obtained:
Mice = experiment: Spontaneous activities of mice after oral IV-12; assay type: in vivo; settings: p.o. 15 or 30 mg/kg
rat = experiment: Rat tail flick model (focused radiant heat); assay type: in vivo; settings: po, read-out: Analgesia ED50

Nc1ccc(CN2CCN(CC(=O)c3ccccc3)CC2)cc1 [IV-12, N^1-(4-aminobenzyl)-N^4-phenacyl piperazine]
Behaviour / spontaneous activities (Mice): quiet and suppressed from spontaneous activities | ED50 (rat): 162 mg/kg
